Patent publication US20190010533A1, “METHODS FOR SCREENING AND SELECTING TARGET AGENTS FROM MOLECULAR DATABASES” (The Methodist Hospital System, priority 2017, published 2019)
Where a name gives a salt, the structure may show the parent alone. Read-outs that look alike come from different tables or passages of the source.

Columns and labels:
canonical pathways = experiment: RNA-seq canonical pathway analysis of 3D AD #A5 cultures treated with anti-Aβ drugs; format: cell-based, human; details: AD #A5 DMSO vs treated
From the text: FIG. 7. […] Pearson correlations of global gene expression profile among 2D undifferentiated control ReN cells, 3D control (G2#B2on), AD #A5 (#A5, moderate Aβ42/40 ratio ˜0.2), AD #D4 (#D4, high Aβ42/40 ratio, ˜1.4), and AD #H10 (#H10, extra high Aβ42/40 ratio, ˜1.7). Units are log CPM. b. Volcano plots show −log10(FDR) vs log FC distribution for G2#B2 (control) vs AD #A5 (AD), AD #A5 DMSO vs AD #A5 BSI (BACE inhibitor, Ly2886721), and AD #A5 DMSO vs AD #A5 GSM (gamma secretase modulator, SGSM15606) transcriptomic signatures. […] Canonical pathway analysis between G2#B2 and AD #A5 (Ingenuity pathway analysis, Qiagen). d. Analysis of common canonical pathways. The pathway analysis among G2#B2 vs AD #A5, AD #A5 DMSO vs AD #A5 BSI, and AD #A5 DMSO vs AD #A5 GSM. Activation z-scores indicate that majority of decreased pathways in AD #A5 are restored by BSI and/or GSM treatments. e. […]
To examine the multiple single-clonal AD models, unbiased whole genome RNA-seq analyses were performed to compare gene expression profiles among the clonal AD models with different Aβ42/40 ratios, as compared to control 3D cultures and undifferentiated 2D control cells (FIG. 7a-d). […] Differential gene expression profile of 3D AD cultures were analyzed after treating anti-Aβ drugs (BACE1 inhibitor, Ly2886721; Gamma-secretase modulator (GSM), GSM15606) (FIG. 7b). […]

pTau [1] = experiment: primary high-content screening (HCS) for inhibition of pTau accumulation in neuron cells in 3D culture; format: cell-based
From the text: This workflow to identify the mechanisms underlying those screening hits can be used to effectively discover more compounds that can generate similar phenotype. As a proof of concept, the transcriptomic profiles hosted by the Broad Institute'[…] warehouse^28-30 through the NIH LINCS program were used in the initial study.

primary neurons = experiment: time-lapse synaptogenesis assay (FM1-43 staining, KCl de-staining); format: cell-based
Procedure: FIG. 6. Time-lapse synaptogenesis assay identifies pre-synaptic hyperactivity caused by thiorphan's treatments.
A high content screening (HCS) is carried out on existing 3,000 known drugs and compounds to systematically characterize the effects of known drugs or bioactive compounds on the Parkinson's Disease (PD) induced pluripotent stem (iPS) cell model, with the aim to identify effective hits that can be validated in PD mouse models. […] Cells were stained with FM1-43 (FIG. 6A) and de-stained by KCl stimulation (FIG. 6B). Time-lapse imaging was carried out from the dye uptake until the synapses were completely de-stained. […] A similar assay is applied in iPS cells as well as neuron cell models for PD. In addition to using the prevalence of synaptogenesis as the main readout for the high content screening (HCS), the heterogeneous nature of stem cell differentiation is addressed by identifying and quantifying the prevalence of novel phenotypes other than stem cell and synaptogenesis based on morphological features. Such consideration of cell population heterogeneity brings deeper insight in the HCS and can help identify potential compounds that are causing specific type of differentiations benefiting cure of PD.

[2] = system: insoluble p-tau species (pSer396/Ser404, pThr181); experiment: Western blot analysis in 3D AD models with high Aβ42/40 ratios; format: cell-based, human; details: various concentrations
From the text: (§1) FIG. 9. Validation of primary hit candidates. Primary hit candidates were confirmed using Western blot analysis (a) and quantitative immunofluorescence staining in 3D AD models with high Aβ42/40 ratios (#HReN and #A4H1) (b). PHF1 pSer396/Ser404 tau antibody was used to detect changes in phospho tau in 3D AD #HReN cells treated with DMSO vehicle, ebselen, or leflunomide.
(§2) In addition to MSD Mesoscale ELISA shown in FIG. 8, quantitative Western blot and immunofluorescence analysis were used to validate candidate drugs. […] Ebselen and leflunomide are compounds screened from original HCS screening of […] biologically active/FDA-approved drug library. […] Moreover, quantitative immunofluorescence staining was used to analyze p-tau changes after treating these compounds.

genes and pathways = experiment: whole genome RNAseq analysis after compound treatment versus control; format: cell-based
From the text: FIG. 10A-10B. […] PPI information was extracted from STRING database version 10.5 with the cutoff for confidence score at 0.4.
Given ebselen and leflunomide in FIG. 9, an unbiased whole genome RNAseq analysis was used to obtain transcriptomic profiles after the treatment of each compound and compare them separately to control conditions. For both treatments, a subset of genes and pathways show significant change (|log FC|>1.5) in the same direction over control condition. […] These 22 genes have 102 PPI pairs among them, and there are 7 genes directly connected to APP (coding Aβ) or MAPT (coding Tau).
It's worth noting that the enrichment of immune and inflammatory related pathway changes is consistent with the characteristics of the 3D cell model, as this system contains astrocytes, which is one of the brain innate immune cells. […] Also, neuroinflammatory pathways are highly unregulated in high Abeta42/40 lines (D4 and H10) as compared to A5 (similar to GA2) (data not shown).

3D AD models = experiment: cellular viability and neurite networks in the immunofluorescence study; format: cell-based, human; details: 5 μM for 3 weeks
From the text: as §2

p-tau (pSer396/Ser404) = experiment: quantitative immunofluorescence staining in 3D AD models; format: cell-based, human; details: 5 μM for 3 weeks
From the text: as §1, §2

pTau [3] = experiment: cell-based validation in reformatted high content version of AD-in-a-dish model; details: 26 predicted compounds tested
From the text: FIG. 2. Pilot SMART screen used 20 primary hits to identify 5 new compound hits that inhibit pTau (phospho-Tau or phosphorylated Tau).
Twenty-two of the 38 aforementioned screening hits had LINCS data covering the perturbation profiles for at least 4 cell lines. From these twenty-two hits, 2 were eliminated because no known drug candidates ranked high enough based on transcriptomic similarities to these two primary hits; and 3 others were removed upon inspection of the compound properties of the predictions they made, i.e., the predicted drugs may be toxic or unfit for systematic use. Thus, the 17 primary hits were used to initiate a pilot run using the SMART framework. The cMAP algorithm^7 was used to rank all compounds in the LINCSCloud, based on the similarity of transcriptomic profiles to each of the 17 primary hits. If any compound was determined by cMAP algorithm to have a similarity score larger than 90 to at least one of the primary hits, it was identified as a hit candidate. After filtering based on pharmacology features, 85 candidates predicted by 17 primary hits remained; 26 of these 85 compounds were purchased for validation after analysis for pharmacology and medical practice features.

Molecule: NC1=N[C@@]2(c3cc(NC(=O)c4ccc(F)cn4)ccc3F)COC[C@H]2CS1 [Ly2886721]
- pathways decreased in AD #A5 after treatment (activation z-scores) (canonical pathways): restored

Molecule: CC[N+](CC)(CC)CCOc1ccc(/C=C/c2ccccc2)cc1 [mg624]
- inhibition of pTau accumulation (primary screen hit status) (pTau [1]): top-3 hits

Molecule: O=C(O)CNC(=O)C(CS)Cc1ccccc1 (stereo not shown) [thiorphan]
- pre-synaptic activity (FM dye uptake, automatic image quantification) (primary neurons): causes pre-synaptic hyperactivity

Molecule: Nc1ccc(-c2nc3ccc(-c4nc5ccc(N)cc5[nH]4)cc3[nH]2)cc1 [Ro90-7501]
- inhibition of pTau accumulation (primary screen hit status) (pTau [1]): primary hits

Molecule: Cc1oncc1C(=O)Nc1ccc(C(F)(F)F)cc1 [leflunomide]
- insoluble p-tau species (pSer396/Ser404, pThr181) [2]: significantly decreased
- pathways changed after treatment (genes and pathways; 5 of 6 pathways connected to 12 down-regulated genes): significantly down-regulated
- genes with significant change versus control (genes and pathways; |log FC|>1.5, shared by both treatments): 15 down-regulated and 7 up-regulated genes
- cellular viability and neurite networks (3D AD models): without affecting
- p-tau (pSer396/Ser404) accumulation (p-tau (pSer396/Ser404)): robustly decreased

Molecule: COc1nc(-c2cc(C)c(NC(C)c3ccc(F)cc3)nn2)ccc1-n1cnc(C)c1 (stereo not shown) [SGSM15606]
- pathways decreased in AD #A5 after treatment (activation z-scores) (canonical pathways): restored

Molecule: C1CCC(C(CC2CCCCN2)C2CCCCC2)CC1 (stereo not shown) [Perhexiline, perhexiline maleate]
- inhibition of pTau in validation (pTau [3]): successful predictions

Molecule: C/C(=C\c1ccc(C(=O)O)cc1)c1ccc2c(c1)C(C)(C)CCC2(C)C [TTNPB]
- inhibition of pTau accumulation (primary screen hit status) (pTau [1]): primary hit

Molecule: N=C(N)c1ccc(OCCCCCOc2ccc(C(=N)N)cc2)cc1 [pentamidine]
- inhibition of pTau accumulation (primary screen hit status) (pTau [1]): top-3 hits

Molecule: ivermectin
- inhibition of pTau accumulation (primary screen hit status) (pTau [1]): top-3 hits
- inhibition of pTau accumulation (primary screen hit status) (pTau [1]; listed as Ivermectin): most significant phenotype

Molecule: Oc1c(Cl)cc(Cl)c2cccnc12 [chloroxine]
- inhibition of pTau in validation (pTau [3]): validated hits
